According to PMC4770715, “LIM kinase inhibitors disrupt mitotic microtubule organization and impair tumor cell proliferation” (Oncotarget, 2015):

Columns and labels:
Assay in all cases: biochemical
Parameters in all cases: KINOMEscan active-site competition binding, percent of control (100 = no competition)
Settings in all cases: competition binding, percent control
[1] = biological target: T1, TRKC (Homo sapiens, UniProt Q16288)
T1 construct: gene NTRK3

[2] = biological target: MAPKAPK2 (Homo sapiens, UniProt P49137)
[3] = biological target: T2, PIP5K2B (Homo sapiens, UniProt P78356)
T2 construct: gene PIP4K2B

[4] = biological target: TLK2 (Homo sapiens, UniProt Q86UE8)
[5] = biological target: FRK (Homo sapiens, UniProt P42685)
Sequence of FRK (P42685 whole entry): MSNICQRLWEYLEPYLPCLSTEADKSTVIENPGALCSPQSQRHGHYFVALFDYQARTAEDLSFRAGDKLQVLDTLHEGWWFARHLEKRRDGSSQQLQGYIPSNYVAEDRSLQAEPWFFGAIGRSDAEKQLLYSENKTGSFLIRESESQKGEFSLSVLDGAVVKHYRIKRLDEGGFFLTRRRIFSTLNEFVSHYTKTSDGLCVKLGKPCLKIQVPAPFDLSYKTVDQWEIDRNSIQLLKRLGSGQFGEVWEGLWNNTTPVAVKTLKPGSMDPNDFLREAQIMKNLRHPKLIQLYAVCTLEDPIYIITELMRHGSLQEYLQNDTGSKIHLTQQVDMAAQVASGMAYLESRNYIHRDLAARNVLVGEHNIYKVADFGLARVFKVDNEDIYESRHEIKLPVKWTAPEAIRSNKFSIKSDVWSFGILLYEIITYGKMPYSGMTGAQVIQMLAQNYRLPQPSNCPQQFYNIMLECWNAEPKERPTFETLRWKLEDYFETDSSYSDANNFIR

[6] = biological target: DDR1 (Homo sapiens, UniProt Q08345)
[7] = biological target: T3, LZK (Homo sapiens, UniProt O43283)
T3 construct: gene MAP3K13

[8] = biological target: NEK7 (Homo sapiens, UniProt Q8TDX7)
Sequence of NEK7 (Q8TDX7 whole entry): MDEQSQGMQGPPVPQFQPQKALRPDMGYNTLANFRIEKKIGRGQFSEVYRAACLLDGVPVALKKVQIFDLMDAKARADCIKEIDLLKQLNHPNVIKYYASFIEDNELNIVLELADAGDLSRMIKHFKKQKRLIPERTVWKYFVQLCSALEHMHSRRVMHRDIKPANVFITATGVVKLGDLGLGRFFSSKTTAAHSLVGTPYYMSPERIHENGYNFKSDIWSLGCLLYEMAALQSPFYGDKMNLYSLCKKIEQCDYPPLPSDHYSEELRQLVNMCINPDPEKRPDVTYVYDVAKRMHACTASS

[9] = biological target: PAK3 (Homo sapiens, UniProt O75914)
[10] = biological target: STK35 (Homo sapiens, UniProt Q8TDR2)
[11] = biological target: SLK (Homo sapiens, UniProt Q9H2G2)
[12] = biological target: LCK (Homo sapiens, UniProt P06239)
Sequence of LCK (P06239 whole entry): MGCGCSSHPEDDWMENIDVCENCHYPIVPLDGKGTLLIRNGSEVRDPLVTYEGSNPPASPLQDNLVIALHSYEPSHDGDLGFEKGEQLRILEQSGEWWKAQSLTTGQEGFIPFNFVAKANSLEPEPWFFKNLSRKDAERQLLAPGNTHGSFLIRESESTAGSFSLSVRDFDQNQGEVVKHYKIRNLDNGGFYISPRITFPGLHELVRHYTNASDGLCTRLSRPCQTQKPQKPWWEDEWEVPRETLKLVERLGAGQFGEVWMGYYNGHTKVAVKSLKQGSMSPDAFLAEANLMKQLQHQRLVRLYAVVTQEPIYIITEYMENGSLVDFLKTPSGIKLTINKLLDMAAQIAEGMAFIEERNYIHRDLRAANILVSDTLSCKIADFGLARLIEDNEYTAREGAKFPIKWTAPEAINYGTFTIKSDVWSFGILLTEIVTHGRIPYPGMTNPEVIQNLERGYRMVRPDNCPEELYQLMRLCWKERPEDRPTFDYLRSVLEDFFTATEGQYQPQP

[13] = biological target: NEK11 (Homo sapiens, UniProt Q8NG66)
Sequence of NEK11 (Q8NG66 whole entry): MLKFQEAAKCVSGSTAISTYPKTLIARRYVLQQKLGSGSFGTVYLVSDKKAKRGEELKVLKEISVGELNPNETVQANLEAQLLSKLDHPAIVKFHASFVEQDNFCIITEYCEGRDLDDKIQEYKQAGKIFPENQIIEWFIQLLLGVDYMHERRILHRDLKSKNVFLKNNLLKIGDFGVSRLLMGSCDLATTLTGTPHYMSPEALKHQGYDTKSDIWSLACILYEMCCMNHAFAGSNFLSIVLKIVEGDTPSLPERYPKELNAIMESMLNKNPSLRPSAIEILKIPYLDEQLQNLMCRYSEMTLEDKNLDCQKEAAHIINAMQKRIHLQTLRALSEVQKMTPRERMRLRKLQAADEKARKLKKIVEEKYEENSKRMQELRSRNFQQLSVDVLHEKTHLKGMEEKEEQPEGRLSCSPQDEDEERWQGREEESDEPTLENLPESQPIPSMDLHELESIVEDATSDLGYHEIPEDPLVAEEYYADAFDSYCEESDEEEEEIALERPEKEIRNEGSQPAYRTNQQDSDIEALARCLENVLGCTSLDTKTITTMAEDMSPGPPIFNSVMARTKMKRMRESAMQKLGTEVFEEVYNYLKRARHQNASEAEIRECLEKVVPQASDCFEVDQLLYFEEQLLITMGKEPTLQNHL

[14] = biological target: T4, RPS6KA4(Kin.Dom.1-N-terminal) (Homo sapiens, UniProt O75676)
T4 construct: Kin.Dom.1-N-terminal

[15] = biological target: RIOK1 (Homo sapiens, UniProt Q9BRS2)
[16] = biological target: T5, ABL1(F317I)-phosphorylated (Homo sapiens, UniProt P00519, F317I)
T5 construct: phosphorylated

[17] = biological target: WEE2 (Homo sapiens, UniProt P0C1S8)
Sequence of WEE2 (P0C1S8 whole entry): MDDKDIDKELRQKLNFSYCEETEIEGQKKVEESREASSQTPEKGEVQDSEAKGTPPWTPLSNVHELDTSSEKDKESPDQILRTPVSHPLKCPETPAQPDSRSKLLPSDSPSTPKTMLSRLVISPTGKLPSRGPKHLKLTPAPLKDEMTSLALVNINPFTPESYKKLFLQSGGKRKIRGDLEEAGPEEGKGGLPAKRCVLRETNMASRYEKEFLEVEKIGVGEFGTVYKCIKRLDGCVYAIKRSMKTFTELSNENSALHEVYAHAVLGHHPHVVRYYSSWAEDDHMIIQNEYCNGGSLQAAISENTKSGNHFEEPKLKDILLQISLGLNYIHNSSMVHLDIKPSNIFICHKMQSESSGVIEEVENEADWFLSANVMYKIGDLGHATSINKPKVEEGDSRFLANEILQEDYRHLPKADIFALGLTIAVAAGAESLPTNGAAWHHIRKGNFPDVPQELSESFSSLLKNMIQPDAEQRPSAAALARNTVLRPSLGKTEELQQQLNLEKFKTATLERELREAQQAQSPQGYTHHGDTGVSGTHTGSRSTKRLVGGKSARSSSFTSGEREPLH

[18] = biological target: T6, DCAMKL2 (Homo sapiens, UniProt Q8N568)
T6 construct: gene DCLK2

[19] = biological target: CHEK2 (Homo sapiens, UniProt O96017)
Sequence of CHEK2 (O96017 whole entry): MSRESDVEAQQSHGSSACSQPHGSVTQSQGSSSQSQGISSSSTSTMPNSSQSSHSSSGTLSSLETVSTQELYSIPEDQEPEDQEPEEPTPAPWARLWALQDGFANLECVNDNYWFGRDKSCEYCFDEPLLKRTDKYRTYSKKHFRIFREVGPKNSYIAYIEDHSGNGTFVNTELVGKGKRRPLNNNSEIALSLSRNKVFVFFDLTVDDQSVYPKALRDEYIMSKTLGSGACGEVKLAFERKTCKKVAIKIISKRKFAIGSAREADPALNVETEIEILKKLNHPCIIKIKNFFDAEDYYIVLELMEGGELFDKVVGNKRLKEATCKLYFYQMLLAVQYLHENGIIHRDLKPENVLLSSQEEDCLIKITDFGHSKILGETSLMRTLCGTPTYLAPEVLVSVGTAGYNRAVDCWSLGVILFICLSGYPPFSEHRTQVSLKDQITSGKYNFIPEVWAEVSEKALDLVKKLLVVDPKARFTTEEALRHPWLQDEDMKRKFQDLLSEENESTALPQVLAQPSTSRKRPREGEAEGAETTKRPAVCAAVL

[20] = biological target: T7, ABL1(H396P)-nonphosphorylated (Homo sapiens, UniProt P00519, H396P)
T7 construct: nonphosphorylated

[21] = biological target: FLT3(K663Q) (Homo sapiens, UniProt P36888, K663Q)
[22] = biological target: T8, PFCDPK1(P.falciparum) (Plasmodium falciparum, UniProt P62344)
T8 construct: gene CDPK1
T8 sequence (P62344 whole entry): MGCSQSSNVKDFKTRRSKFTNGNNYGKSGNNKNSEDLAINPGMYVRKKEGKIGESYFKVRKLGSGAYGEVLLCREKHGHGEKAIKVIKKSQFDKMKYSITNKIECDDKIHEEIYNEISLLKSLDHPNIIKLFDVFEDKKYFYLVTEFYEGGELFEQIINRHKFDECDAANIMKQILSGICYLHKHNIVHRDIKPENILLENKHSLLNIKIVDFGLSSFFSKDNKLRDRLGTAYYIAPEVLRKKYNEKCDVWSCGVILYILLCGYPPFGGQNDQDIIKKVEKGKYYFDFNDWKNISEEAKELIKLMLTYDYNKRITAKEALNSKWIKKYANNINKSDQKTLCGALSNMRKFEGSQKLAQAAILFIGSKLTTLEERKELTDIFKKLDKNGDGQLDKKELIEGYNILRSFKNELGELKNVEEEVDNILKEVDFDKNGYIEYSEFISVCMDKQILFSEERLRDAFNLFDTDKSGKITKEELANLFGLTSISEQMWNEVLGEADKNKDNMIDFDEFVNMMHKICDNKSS

[23] = biological target: T9, JAK3(JH1domain-catalytic) (Homo sapiens, UniProt P52333)
T9 construct: JH1domain-catalytic
T9 sequence (P52333 whole entry): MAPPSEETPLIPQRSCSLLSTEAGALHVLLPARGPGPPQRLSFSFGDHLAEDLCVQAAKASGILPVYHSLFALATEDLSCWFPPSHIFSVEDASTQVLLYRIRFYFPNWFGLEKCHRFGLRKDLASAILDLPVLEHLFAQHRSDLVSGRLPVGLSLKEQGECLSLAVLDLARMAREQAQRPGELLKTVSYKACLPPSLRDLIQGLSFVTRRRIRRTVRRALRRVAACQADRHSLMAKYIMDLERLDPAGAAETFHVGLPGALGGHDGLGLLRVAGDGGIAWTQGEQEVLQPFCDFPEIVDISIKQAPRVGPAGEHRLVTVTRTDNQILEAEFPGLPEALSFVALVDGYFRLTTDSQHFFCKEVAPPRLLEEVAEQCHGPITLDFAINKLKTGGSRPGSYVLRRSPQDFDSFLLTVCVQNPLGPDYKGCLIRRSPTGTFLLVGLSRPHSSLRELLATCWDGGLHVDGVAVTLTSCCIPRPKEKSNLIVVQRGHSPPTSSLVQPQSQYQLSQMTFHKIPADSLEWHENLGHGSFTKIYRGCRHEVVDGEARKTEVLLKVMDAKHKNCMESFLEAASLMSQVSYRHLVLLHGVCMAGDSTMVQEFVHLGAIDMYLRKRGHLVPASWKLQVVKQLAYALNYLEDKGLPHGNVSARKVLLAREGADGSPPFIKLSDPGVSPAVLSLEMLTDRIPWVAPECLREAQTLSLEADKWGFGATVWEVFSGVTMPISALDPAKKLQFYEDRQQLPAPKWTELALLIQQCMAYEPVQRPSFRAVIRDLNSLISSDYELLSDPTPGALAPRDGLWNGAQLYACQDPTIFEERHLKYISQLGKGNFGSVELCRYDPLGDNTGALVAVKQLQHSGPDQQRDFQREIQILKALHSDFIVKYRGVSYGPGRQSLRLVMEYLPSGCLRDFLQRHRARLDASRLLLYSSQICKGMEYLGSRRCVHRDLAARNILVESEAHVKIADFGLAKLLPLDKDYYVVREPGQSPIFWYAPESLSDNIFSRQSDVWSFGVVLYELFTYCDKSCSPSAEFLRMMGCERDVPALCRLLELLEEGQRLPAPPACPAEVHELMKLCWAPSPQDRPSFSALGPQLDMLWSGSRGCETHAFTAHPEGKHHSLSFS

SMILES | remaining binding at 10 µM [1] [%] | remaining binding at 10 µM [2] [%] | remaining binding at 10 µM [3] [%] | remaining binding at 10 µM [4] [%] | remaining binding at 10 µM [5] [%] | remaining binding at 10 µM [6] [%] | remaining binding at 10 µM [7] [%] | remaining binding at 10 µM [8] [%] | remaining binding at 10 µM [9] [%] | remaining binding at 10 µM [10] [%] | remaining binding at 10 µM [11] [%] | remaining binding at 10 µM [12] [%] | remaining binding at 10 µM [13] [%] | remaining binding at 10 µM [14] [%] | remaining binding at 10 µM [15] [%] | remaining binding at 10 µM [16] [%] | remaining binding at 10 µM [17] [%] | remaining binding at 10 µM [18] [%] | remaining binding at 10 µM [19] [%] | remaining binding at 10 µM [20] [%] | further results
COc1ccc(-c2cnccc2-c2cnc(NC(=O)C(C)C)s2)c(C(F)(F)F)c1 [CRT0105446, N-{5-[3-(4-Methoxy-2-trifluoromethyl-phenyl)-pyridin-4-yl]-hiazol-2-yl}-isobutyramide] | 100 | 100 | 100 | 99 | 98 | 83 | 100 | 100 | 4.6 | 98 | 100 | 100 | 100 | 100 | 97 | 76 | 100 | 39 | 100 | 71 | remaining binding at 10 µM [21]: 34%; remaining binding at 10 µM [22]: 30%; remaining binding at 10 µM [23]: 100%
Cc1ccc(-c2cnccc2-c2cnc(Nc3ccc(O)cc3)s2)c(Cl)c1 [CRT0105950, 4-{5-[3-(2-Chloro-4-methyl-phenyl)-pyridin-4-yl]-thiazol-2-ylamino}-phenol] | 0.6 | 100 | 44 | 56 | 59 | 0.1 | 96 | 100 | 4.1 | 100 | 95 | 20 | 84 | 14 | 65 | 87 | 100 | 77 | 55 | 27 | remaining binding at 10 µM [21]: 0.5%; remaining binding at 10 µM [22]: 17%; remaining binding at 10 µM [23]: 33%
